Assay results from ChEMBL document CHEMBL3272096, “Semisynthetic cephalosporins. Synthesis and structure-activity relationships of 7-sulfonylacetamido-3-cephem-4-carboxylic acids” (1976).
≈ marks a conversion by molar mass, not a printed value. Calls of active or inactive are those of the source. No cut-off for these calls is given here.

Experiments:
Enterococcus faecalis = assay: Antibacterial activity against Streptococcus faecalis by two-fold agar dilution method; format: functional
Pseudomonas aeruginosa = assay: Antibacterial activity against Pseudomonas aeruginosa by two-fold agar dilution method; format: functional, organism-based
Staphylococcus aureus [1] = assay: Antibacterial activity against penicillin G-resistant Staphylococcus aureus HH 127 by two-fold agar dilution method; format: functional
Escherichia coli [2] = assay: Antibacterial activity against Escherichia coli 12140 by two-fold agar dilution method; format: functional
Klebsiella pneumoniae = assay: Antibacterial activity against Klebsiella pneumoniae 4200 by two-fold agar dilution method; format: functional
Salmonella paratyphi = assay: Antibacterial activity against Salmonella paratyphi ATCC 12176 by two-fold agar dilution method; format: functional, Salmonella enterica subsp. enterica serovar Paratyphi A; conditions: Salmonella enterica
Shigella flexneri = assay: Antibacterial activity against Shigella paradysenteriae HH 117 by two-fold agar dilution method; format: functional
Klebsiella aerogenes = assay: Antibacterial activity against Enterobacter aerogenes ATCC 13048 by two-fold agar dilution method; format: functional
Staphylococcus aureus [3] = assay: Antibacterial activity against Staphylococcus aureus 23390 by two-fold agar dilution method; format: functional, organism-based
Escherichia coli [4] = assay: Antibacterial activity against Escherichia coli 12140 infected in sc dosed mouse assessed as host protection administered at 1 and 5 hrs post-infection; format: functional; conditions: Escherichia coli, 12140, sc; read-out: PD50

Compound	MIC (Enterococcus faecalis)	Activity (Pseudomonas aeruginosa)	MIC (Staphylococcus aureus [1])	MIC (Escherichia coli [2])	MIC (Klebsiella pneumoniae)	MIC (Salmonella paratyphi)	MIC (Shigella flexneri)	MIC (Klebsiella aerogenes)	Activity (Staphylococcus aureus [3])	ED50 (Escherichia coli [4])
CC(=O)OCC1=C(C(=O)[O-])N2C(=O)[C@@H](NC(=O)C(C)S(C)(=O)=O)[C@H]2SC1.[Na+] (stereo partly drawn)	> 13 µg/mL	inactive	3.1 µg/mL	25 µg/mL	3.1 µg/mL	13 µg/mL	25 µg/mL	50 µg/mL	Active	–
Cn1cnnc1SCC1=C(C(=O)[O-])N2C(=O)[C@@H](NC(=O)CS(C)(=O)=O)[C@H]2SC1.[Na+]	> 13 µg/mL	inactive	3.1 µg/mL	6.2 µg/mL	6.2 µg/mL	3.1 µg/mL	–	> 200 µg/mL	Active	22 mg/kg
CC(C(=O)N[C@@H]1C(=O)N2C(C(=O)[O-])=C(CSc3nnnn3C)CS[C@H]12)S(C)(=O)=O.[Na+] (stereo partly drawn)	> 13 µg/mL	inactive	3.1 µg/mL	6.2 µg/mL	6.2 µg/mL	6.2 µg/mL	3.1 µg/mL	13 µg/mL	Active	50 mg/kg
CCS(=O)(=O)CC(=O)N[C@@H]1C(=O)N2C(C(=O)O)=C(CSc3nnc(C)s3)CS[C@H]12	> 13 µg/mL	inactive	0.4 µg/mL (≈ 0.836 µM)	3.1 µg/mL (≈ 6.48 µM)	1.6 µg/mL (≈ 3.34 µM)	1.6 µg/mL (≈ 3.34 µM)	6.2 µg/mL (≈ 13 µM)	100 µg/mL (≈ 209 µM)	Active	8 mg/kg
Cn1nnnc1SCC1=C(C(=O)[O-])N2C(=O)[C@@H](NC(=O)CS(C)(=O)=O)[C@H]2SC1.[Na+]	> 13 µg/mL	inactive	1.6 µg/mL	1.6 µg/mL	1.6 µg/mL	0.8 µg/mL	1.6 µg/mL	25 µg/mL	Active	7 mg/kg
CC(=O)OCC1=C(C(=O)O)N2C(=O)[C@@H](NC(=O)Cc3cccs3)[C@H]2SC1 [CEPHALOTHIN]	–	–	0.2 µg/mL (≈ 0.504 µM)	3.1 µg/mL (≈ 7.82 µM)	3.1 µg/mL (≈ 7.82 µM)	1.6 µg/mL (≈ 4.04 µM)	6.2 µg/mL (≈ 15.6 µM)	50 µg/mL (≈ 126 µM)	Active	50 mg/kg
CS(=O)(=O)CC(=O)N[C@@H]1C(=O)N2C(C(=O)[O-])=C(CSc3nnn[nH]3)CS[C@H]12.[Na+]	> 13 µg/mL	inactive	6.2 µg/mL	50 µg/mL	3.1 µg/mL	3.1 µg/mL	25 µg/mL	> 200 µg/mL	Active	45 mg/kg
CCS(=O)(=O)CC(=O)N[C@@H]1C(=O)N2C(C(=O)[O-])=C(CSc3nnnn3C)CS[C@H]12.[Na+]	> 13 µg/mL	inactive	0.8 µg/mL	1.6 µg/mL	1.6 µg/mL	0.8 µg/mL	1.6 µg/mL	100 µg/mL	Active	7 mg/kg
CCCS(=O)(=O)CC(=O)N[C@@H]1C(=O)N2C(C(=O)O)=C(COC(C)=O)CS[C@H]12	> 13 µg/mL	inactive	0.8 µg/mL (≈ 1.9 µM)	13 µg/mL (≈ 30.9 µM)	6.2 µg/mL (≈ 14.7 µM)	3.1 µg/mL (≈ 7.37 µM)	13 µg/mL (≈ 30.9 µM)	200 µg/mL (≈ 476 µM)	Active	56 mg/kg
CCCS(=O)(=O)CC(=O)N[C@@H]1C(=O)N2C(C(=O)[O-])=C(CSc3nnnn3C)CS[C@H]12.[Na+]	> 13 µg/mL	inactive	0.4 µg/mL	1.6 µg/mL	0.8 µg/mL	0.4 µg/mL	1.6 µg/mL	6.2 µg/mL	Active	10 mg/kg
Cn1nnnc1SCC1=C(C(=O)[O-])N2C(=O)[C@@H](NC(=O)CS(N)(=O)=O)[C@H]2SC1.[Na+]	> 13 µg/mL	inactive	1.6 µg/mL	3.1 µg/mL	13 µg/mL	1.6 µg/mL	3.1 µg/mL	13 µg/mL	Active	38 mg/kg
Cn1nnnc1SCC1=C(C(=O)[O-])N2C(=O)[C@@H](NC(=O)CS(=O)(=O)C(F)(F)F)[C@H]2SC1.[Na+]	> 13 µg/mL	inactive	1.6 µg/mL	1.6 µg/mL	3.1 µg/mL	1.6 µg/mL	0.8 µg/mL	3.1 µg/mL	Active	17 mg/kg
Cc1nnc(SCC2=C(C(=O)[O-])N3C(=O)[C@@H](NC(=O)CS(C)(=O)=O)[C@H]3SC2)[nH]1.[Na+]	> 13 µg/mL	inactive	1.6 µg/mL	6.2 µg/mL	3.1 µg/mL	1.6 µg/mL	13 µg/mL	200 µg/mL	Active	10 mg/kg
CCS(=O)(=O)CC(=O)N[C@@H]1C(=O)N2C(C(=O)[O-])=C(COC(C)=O)CS[C@H]12.[Na+]	> 13 µg/mL	inactive	0.8 µg/mL	25 µg/mL	6.2 µg/mL	3.1 µg/mL	25 µg/mL	> 200 µg/mL	Active	70 mg/kg
CCCCS(=O)(=O)CC(=O)N[C@@H]1C(=O)N2C(C(=O)[O-])=C(CSc3nnnn3C)CS[C@H]12.[Na+]	> 13 µg/mL	inactive	0.4 µg/mL	3.1 µg/mL	3.1 µg/mL	1.6 µg/mL	3.1 µg/mL	13 µg/mL	Active	21 mg/kg
CCCCS(=O)(=O)CC(=O)N[C@@H]1C(=O)N2C(C(=O)O)=C(COC(C)=O)CS[C@H]12	> 13 µg/mL	inactive	0.2 µg/mL (≈ 0.46 µM)	13 µg/mL (≈ 29.9 µM)	13 µg/mL (≈ 29.9 µM)	3.1 µg/mL (≈ 7.13 µM)	6.2 µg/mL (≈ 14.3 µM)	50 µg/mL (≈ 115 µM)	Active	180 mg/kg
Cc1nnc(SCC2=C(C(=O)[O-])N3C(=O)[C@@H](NC(=O)CS(C)(=O)=O)[C@H]3SC2)s1.[Na+]	> 13 µg/mL	inactive	1.6 µg/mL	13 µg/mL	3.1 µg/mL	3.1 µg/mL	13 µg/mL	> 200 µg/mL	Active	–
CC(=O)OCC1=C(C(=O)O)N2C(=O)[C@@H](NC(=O)CS(=O)(=O)C(F)(F)F)[C@H]2SC1	> 13 µg/mL	inactive	6.2 µg/mL (≈ 13.9 µM)	6.2 µg/mL (≈ 13.9 µM)	6.2 µg/mL (≈ 13.9 µM)	6.2 µg/mL (≈ 13.9 µM)	13 µg/mL (≈ 29.1 µM)	25 µg/mL (≈ 56 µM)	Active	> 50 mg/kg
CCCS(=O)(=O)CC(=O)N[C@@H]1C(=O)N2C(C(=O)[O-])=C(CSc3nnc(C)s3)CS[C@H]12.[Na+]	> 13 µg/mL	inactive	0.4 µg/mL	6.2 µg/mL	3.1 µg/mL	1.6 µg/mL	6.2 µg/mL	50 µg/mL	Active	25 mg/kg
CC(=O)OCC1=C(C(=O)[O-])N2C(=O)[C@@H](NC(=O)CS(=O)(=O)c3ccccc3)[C@H]2SC1.[Na+]	> 13 µg/mL	inactive	1.6 µg/mL	50 µg/mL	13 µg/mL	13 µg/mL	25 µg/mL	> 200 µg/mL	Active	–
CC(=O)OCC1=C(C(=O)[O-])N2C(=O)[C@@H](NC(=O)CS(C)(=O)=O)[C@H]2SC1.[Na+]	> 13 µg/mL	inactive	3.1 µg/mL	13 µg/mL	13 µg/mL	13 µg/mL	13 µg/mL	> 200 µg/mL	Active	62 mg/kg
Cc1nnc(SCC2=C(C(=O)O)N3C(=O)[C@@H](NC(=O)Cn4cnnn4)[C@H]3SC2)s1 [CEFAZOLIN]	–	–	0.4 µg/mL (≈ 0.88 µM)	0.8 µg/mL (≈ 1.76 µM)	0.8 µg/mL (≈ 1.76 µM)	0.8 µg/mL (≈ 1.76 µM)	0.4 µg/mL (≈ 0.88 µM)	1.6 µg/mL (≈ 3.52 µM)	Active	6 mg/kg
Cn1nnnc1SCC1=C(C(=O)O)N2C(=O)[C@@H](NC(=O)CS(=O)(=O)c3ccccc3)[C@H]2SC1	> 13 µg/mL	inactive	0.4 µg/mL (≈ 0.783 µM)	3.1 µg/mL (≈ 6.07 µM)	3.1 µg/mL (≈ 6.07 µM)	6.2 µg/mL (≈ 12.1 µM)	1.6 µg/mL (≈ 3.13 µM)	13 µg/mL (≈ 25.5 µM)	Active	25 mg/kg
CS(=O)(=O)CC(=O)N[C@@H]1C(=O)N2C(C(=O)[O-])=C(CSc3cnn[nH]3)CS[C@H]12.[Na+]	> 13 µg/mL	inactive	1.6 µg/mL	13 µg/mL	6.2 µg/mL	6.2 µg/mL	13 µg/mL	> 200 µg/mL	Active	–
CC(=O)OCC1=C(C(=O)[O-])N2C(=O)[C@@H](NC(=O)CS(N)(=O)=O)[C@H]2SC1.[Na+]	> 13 µg/mL	inactive	1.6 µg/mL	50 µg/mL	25 µg/mL	13 µg/mL	25 µg/mL	200 µg/mL	Active	–
CCCCS(=O)(=O)CC(=O)N[C@@H]1C(=O)N2C(C(=O)[O-])=C(CSc3nnc(C)s3)CS[C@H]12.[Na+]	> 13 µg/mL	inactive	0.1 µg/mL	6.2 µg/mL	6.2 µg/mL	1.6 µg/mL	6.2 µg/mL	25 µg/mL	Active	> 50 mg/kg
Cn1nnnc1SCC1=C(C(=O)O)N2C(=O)[C@@H](NC(=O)CSC(F)(F)F)[C@H]2SC1 [CEFAZAFLUR]	–	–	0.4 µg/mL (≈ 0.85 µM)	0.4 µg/mL (≈ 0.85 µM)	0.8 µg/mL (≈ 1.7 µM)	0.4 µg/mL (≈ 0.85 µM)	0.2 µg/mL (≈ 0.425 µM)	1.6 µg/mL (≈ 3.4 µM)	Active	2 mg/kg
